Data as given in PubChem BioAssay (NCI).
Where “and” joins values, the source holds several entries; their conditions need not be identical. Equal entries are not always repeated.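 These data come from cells grown in 96-well plates and exposed to compound for 48 hours at five concentrations. Abbreviation: GI50, concentration required for 50% inhibition of growth. TGI is the concentration that stops growth completely.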

Assays:
Assay in all cases: NCI tumour cell line growth inhibition, 48 h
RPMI-8226 leukemia = test system: RPMI-8226 leukemia
HCC-2998 colon = test system: HCC-2998 colon
EKVX NSCLC = test system: EKVX NSCLC
NCI-H23 lung = test system: NCI-H23 lung
OVCAR-4 ovarian = test system: OVCAR-4 ovarian
MDA-MB-435 = test system: MDA-MB-435
CCRF-CEM leukemia = test system: CCRF-CEM leukemia
SF-268 CNS = test system: SF-268 CNS
SR leukemia = test system: SR leukemia
HL-60(TB) leukemia = test system: HL-60(TB) leukemia

SMILES | GI50 (RPMI-8226 leukemia) [µM] | TGI (RPMI-8226 leukemia) | GI50 (HCC-2998 colon) [µM] | TGI (HCC-2998 colon) | GI50 (EKVX NSCLC) [µM] | TGI (EKVX NSCLC) | GI50 (NCI-H23 lung) [µM] | TGI (NCI-H23 lung) | GI50 (OVCAR-4 ovarian) [µM] | TGI (OVCAR-4 ovarian) [µM] | GI50 (MDA-MB-435) [µM] | TGI (MDA-MB-435) [µM] | GI50 (CCRF-CEM leukemia) [µM] | TGI (CCRF-CEM leukemia) | GI50 (SF-268 CNS) [µM] | TGI (SF-268 CNS) | GI50 (SR leukemia) [µM] | TGI (SR leukemia) | GI50 (HL-60(TB) leukemia) [µM] | TGI (HL-60(TB) leukemia) [µM]
CN[C@@H](C)C(=O)N[C@H]1CN(S(=O)(=O)c2cccc(S(=O)(=O)N3CC[C@H]4CC[C@@H](C(=O)NC(c5ccccc5)c5ccccc5)N4C(=O)[C@@H](NC(=O)[C@H](C)NC)C3)c2)CC[C@H]2CC[C@@H](C(=O)NC(c3ccccc3)c3ccccc3)N2C1=O | 3.92 | 99.2 µM | 11 | 27.2 µM | 25.2 | > 74 µM | 1.09 | 17.9 µM | 0.0187 | 0.128 | 1.89 | 21.6 | 1.85 | > 100 µM | 20.9 | 47.8 µM | 1.95 | > 100 µM | 0.0317 | 1.69
COc1cc2c(cc1Nc1nc(N3CCc4ccccc43)c3cc[nH]c3n1)N(C(=O)CN(C)C)CC2 | 1.55 | 3.98 µM | 3.13 | 7.33 µM | 5.11 | 13.9 µM | 4.98 | 14.6 µM | 2.84 | 9.04 | 2.64 | 7.91 | 0.611 | 1.49 µM | 5.03 | 10.3 µM | 0.517 | 1.28 µM | 1.18 | 6.82
N#CC1(c2ccc(NC(=O)c3cccnc3NCc3ccncc3)cc2)CCCC1 | 6.73 | 31.4 µM | 25.8 | > 100 µM | 11.8 | > 100 µM | 12.8 | 41.8 µM | 13.2 | 98.5 | 13.4 | 37.4 | 12.9 | > 95 µM | 27 | > 100 µM | 13 | 39.5 µM | 11.9 | 45.9
C[C@]12CC[C@H]3[C@@H](CCC4=CC(=O)CC[C@@]43C)[C@@H]1CC[C@@H]2c1csc(N)n1 | 1.21 | 26.2 µM | 5.08 | 19.6 µM | 1.12 | 8.39 µM | 2.85 | 19.9 µM | 2.98 | 27.2 | 2.63 | 10.6 | 4.49 | 49 µM | 5.07 | 24.1 µM | 2.12 | 12.6 µM | 1.65 | 8.18
COC1N(C2CC(O)C(CO)O2)C(=O)NC(=O)C1(F)Br (centres undefined) | 34.1 | 50 µM and > 100 µM | 1.14 | 50 µM and 98 µM | 19.9 | 50 µM and > 100 µM | 13.3 | 50 µM and > 100 µM | > 59.1 | > 100 | – | > 100 | 27.6 | 50 µM and > 75.4 µM | 18.2 | 50 µM and > 100 µM | 25.1 | 50 µM and > 100 µM | 13.8 | > 67
COc1ccc2c(N)ncc(C#Cc3cc(C(=O)Nc4ccc(CN5CCN(C)CC5)c(C(F)(F)F)c4)cnc3C)c2c1 | 0.775 | 2.25 µM | 1.42 | 5.36 µM | 5.11 | 19 µM | 1.89 | 8.79 µM | 1.13 | 10.9 | 0.647 | 3.1 | 0.841 | 4.13 µM | 1.21 | 4.78 µM | 0.649 | 1.97 µM | 1.63 | 11.1
O=C(/C=C/C12c3ccccc3C(c3ccccc31)C1C(=O)NC(=O)C12)c1ccccn1 (centres undefined) | 1.22 | 4.3 µM | 1.88 | 3.51 µM | 1.91 | 4.93 µM | 1.89 | 4.07 µM | 2.69 | 11.7 | 1.77 | 5.15 | 1.44 | 9.92 µM | 1.61 | 4.35 µM | 0.782 | 7.31 µM | 1.02 | 3.41
CCNc1nc(O)c(/C=C2\C=Nc3ncccc32)s1 | 11.7 | 68 µM | 4.92 | 36.7 µM | 16.6 | > 100 µM | 2.57 | 11.5 µM | 3.08 | > 100 | 3.49 | 14.9 | 3.59 | > 100 µM | 2.3 | 7.85 µM | 1.6 | > 100 µM | 2.53 | 10.2
OC1(c2ccc(Cl)c(C(F)(F)F)c2)CCN(CCCC(c2ccc(F)cc2)c2ccc(F)cc2)CC1 | 1.1 | 2.67 µM | 0.762 | 1.43 µM | 1.47 | 6.2 µM | 0.83 | 1.62 µM | 0.804 | 1.82 | 0.819 | 1.53 | 1.04 | 2.63 µM | 0.894 | 1.88 µM | 0.831 | 2 µM | 1.01 | 2.02
CCN(CC)Cc1cc(Nc2nc(NC3CCC(N(C)C)CC3)c3ccccc3n2)ccc1OC (centres undefined) | 2.34 | 6.63 µM | 10.4 | 22.2 µM | 7.75 | 25.5 µM | 6.9 | 21.9 µM | 4.24 | 18.3 | 3.05 | 11.9 | 2.5 | 16.8 µM | 5.35 | 20.4 µM | 2.13 | 4.74 µM | 3.87 | 14.9
COc1ccc2c(c1)c(-c1nc(-c3c[nH]c4ncccc34)cs1)cn2CCCN1CCOCC1 | 1.92 | 4.86 µM | 2.04 | 4.34 µM | 3.01 | 16.8 µM | 2.68 | 8.75 µM | 2.14 | 8.27 | 1.75 | 3.37 | 2.76 | 8.09 µM | 2.69 | 10.3 µM | 2.3 | 7 µM | 2.11 | 4.36
O=[N+]([O-])c1ccc(Cl)c2c([N+](=O)[O-])cccc12 | – | > 10 µM | – | > 10 µM | – | > 10 µM | – | > 10 µM | – | > 10 | – | 9.61 | – | > 10 µM | – | > 10 µM | – | > 10 µM | – | 7.16
